Laboratory results from US5459256A, “Lipophilic, aminohydrolase-activated prodrugs” (priority 1991, dated 1995).
Read-outs that look alike come from different tables or passages of the source.

Legend:
[1] = target: T1, adenosine deaminase (adenosine aminohydrolase, EC 3.5.4.4) (Bos taurus, UniProt P56658); assay: Enzymatic deamination by adenosine deaminase (HPLC); conditions: for half-life at 50 µM: bovine, adenosine deaminase
T1 sequence (P56658 1-363): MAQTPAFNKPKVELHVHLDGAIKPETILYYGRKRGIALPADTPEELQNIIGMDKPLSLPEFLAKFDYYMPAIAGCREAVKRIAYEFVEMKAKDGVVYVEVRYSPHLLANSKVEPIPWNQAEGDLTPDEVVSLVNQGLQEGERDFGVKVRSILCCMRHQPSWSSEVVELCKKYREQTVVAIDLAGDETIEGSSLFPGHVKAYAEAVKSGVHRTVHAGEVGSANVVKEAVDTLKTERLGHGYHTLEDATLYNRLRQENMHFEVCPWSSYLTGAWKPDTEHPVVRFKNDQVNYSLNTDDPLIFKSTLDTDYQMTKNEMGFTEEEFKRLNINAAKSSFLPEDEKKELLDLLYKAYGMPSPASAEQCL
Procedure: FIG. 1. Deamination of dideoxyadenosine analogues by adenosine deaminase. Hydrolysis kinetics and 2'-F-dd-ara-I formation during the incubation of 50 μM N^6 -CH3 -2'-F-dd-ara-A (1f) with 0.7 units/mL of adenosine deaminase at 37° C. A unit of adenosine deaminase is the amount of enzyme which hydrolyzes a standard substrate (e.g., adenosine) at the rate of 1.0 μmole/min at 25° C. and pH 7.5. […] Insert: Adenosine deaminase hydrolysis kinetics for 50 μM ddA and 2'-F-dd-ara-A. The hydrolysis curve for ddA has been extrapolated from kinetics obtained with 0.07 units/mL of adenosine deaminase under identical conditions.
A 50 μl aliquot of a 10 mg/ml suspension of adenosine deaminase (adenosine aminohydrolase, EC 3.5.4.4) from calf intestinal mucosa was centrifuged at 600×g for 3 min. The residue remaining after removal of the (NH4)2 SO4 supernatant was dissolved in 0.5 ml pH 7.4 tris(hydroxymethyl)-aminomethane (Tris) buffer to give an enzyme solution of 1 mg/ml (274 units/ml). […] A pH 7.4 buffer was prepared by adjusting 0.01M Tris to pH 7.4 with 0.5N HCl, The 1.0 HCl , HPLC-grade acetonitrile, monobasic potassium phosphate, sodium hydroxide and ultrapure Tris were all commercially available and were used without further purification.
Enzymatic Deamination of Adenosine Analogues. […] A 50 μL aliquot of substrate solution was diluted with 0.95 ml 0.01M Tris buffer in a 1.5-mL Eppendorf tube and equilibrated at 37° C. in a Dubnoff metabolic shaking incubator. Reaction was initiated by addition of 2.5 μL of adenosine deaminase solution (0.7 unit). At specified time intervals, a 50 μL aliquot of the reaction mixture was withdrawn and quenched by mixing with 0.45 mL cold 2 μM 2'-deoxycoformycin. This diluted sample was ultrafiltered to remove enzyme in a Centrifree Micropartition unit by centrifugation at 600×g at 4° C. in a high speed refrigerated centrifuge. The decrease in substrate concentration was monitored by HPLC analysis of the resultant ultrafiltrate (see below). The ability of 2'-deoxycoformycin to inhibit deamination under the above conditions was evaluated by adding 2 μL of 1.0 mM inhibitor to diluted substrate solutions at the time of equilibration. Reaction, sampling and analysis were carried out as above. […] Initial hydrolysis rates for each substrate concentration were measured through linear least-squares curve fitting of the concentration versus time data for reaction of the first 10% of substrate. KM and vmax values for each substrate were then determined from a graphical lineweaver-Burke plot of these initial rates (FIG. 1).
HPLC Analysis of Dideoxypurine Nucleosides.
Concentrations of dideoxynucleosides were measured by the HPLC analysis of 100 μL aliquots of ultrafiltered samples. A 4.6×250 mm 5-μm Ultrasphere-ODS column, protected by a Waters guard column packed with 37-50 μm Vydac 201SC, was eluted with 10-20% CH3 CN in 0.01M pH 7.0 phosphate buffer at a flow rate of 1.0 mL/min. Dideoxynucleosides and deamination products were detected at the appropriate wavelength of maximum absorption with a Gilson 116 variable wavelength detector. Peak identity was determined from coincidence of retention times with standards and by comparison of on-the-fly UV spectra obtained with a Perkin-Elmer LC-235 diode array detector. Peak areas and peak heights were measured simultaneously on a Spectra-Physics SP4200 computing integrator.

[2] = tested on: HIV-1/IIIB (CD4^+ ATH8 cells); assay: HIV cytopathic effect inhibition assay in ATH8 cells (% protection); format: cell-based
Procedure: (§1) HIV Cytopathic Effect Inhibition Assay.
(§2) The HIV cytopathic effect inhibition assay was performed as previously described. (Mitsuya, H. & Broder, S. Proc. Nat. Acad. Sci. USA 1986, 83, 1911) Briefly, 200,000 target CD4^+ ATH8 cells were exposed to cell-free HIV-1/IIIB at a dose of 43 (or 1087 for compound 1g) TCID50 (50% tissue culture infectious dose) for 1 h, resuspended in 2 ml of fresh culture media containing interleukin 2, and cultured at 37° C. with or without test compounds in 5% CO2 -containing humidified air. On day 8 in culture, the viable cells were counted by using the dye exclusion method. All compounds, including inactives, were evaluated a minimum of two times in separate experiments. Data reported in Table II are from representative tests. The % protection against the virus was determined by the following formula: 100 times [(the number of viable cells exposed to HIV-1 and cultured in the presence of the compound minus the number of viable cells exposed to HIV-1 and cultured in the absence of compound) divided by (the number of viable cells cultured alone minus the number of viable cells exposed to HIV-1 and cultured in the absence of the compound)]. The % toxicity of a compound on the target cells was determined by the following formula: 100 times [1 minus (the number of total viable cells cultured in the presence of the compound divided by the number of total viable cells cultured alone)]. Calculated percentages equal to or less than zero are expressed as 0%.
^a ATH8 cells were exposed to HIV1/IIIB per cell for 1 hr and
cultured in the presence of various concentrations of each compound. On
day 8, the total viable cells were counted. Orders of numbers in the
column for concentrations correspond to the orders of numbers in other

[3] = tested on: ADA; conditions: vs ddA, determined previously, slightly different conditions; cited from earlier work
[4] = tested on: CD4^+ ATH8 cells; assay: Toxicity on ATH8 target cells (% toxicity, dye exclusion); format: cell-based
Procedure: as §1
as §2, with “(Mitsuya, H. & Broder, S. Proc. Nat. Acad. Sci. USA 1986, 83, 1911) Briefly, 200,000 target CD4^+ ATH8 cells were exposed to cell-free HIV-1/IIIB at a dose of 43 (or 1087 for compound 1g) TCID50 (50% tissue culture infectious dose) for 1 h, resuspended in 2 ml of fresh culture media containing interleukin 2, and cultured at 37° C. with or without test compounds in 5% CO2 -containing humidified air.” left out

[5] = Octanol-water partition coefficient, microscale shake-flask; conditions: octanol/ph 7.0 buffer
Procedure: Measurement of Octanol-Water Partition Coefficients.
n-Octanol-water partition coefficients (P) were determined by a microscale shake-flask procedure, (Ford, H. et al Abstracts of Papers, 200th National Meeting of the American Chemical Society, Washington, D.C.; American Chemical Society: Washington, D.C., 1990; CARB 13) which was modification of an earlier method (Nahum, A. & Horvath, C. J. Chromatogr. 1980, 192, 315). A 20 μL aliquot of a 0.5 mg/mL DMSO solution of the dideoxynucleoside was dissolved in 1.0 mL of octanol-saturated, pH 7.0, 0.01M potassium phosphate buffer. This was mixed thoroughly with 1.0 ml of buffer-saturated n-octanol in a 2-mL Mixxor apparatus at 24°-26° C. and then allowed to stand for 15 min. The phases were separated, centrifuged at 600×g for 5 min, and the relative concentration of sample in each phase determined by HPLC analysis of a 50 μl aliquot. The partition coefficient was calculated by dividing the absolute area of the appropriate integrated peak from the octanol phase by that of the buffer phase (Table I).
Octanol/pH 7.0 buffer partition coefficients were determined using a newly developed microscale method. […] The addition of a methyl group normally increases the log P value of a compound by about 0.5.

[6] = tested on: human immunodeficiency virus (HIV); conditions: background statement; cited from earlier work
[7] = Toxicity on ATH8 target cells (% toxicity, dye exclusion); format: cell-based; conditions: human, ath8 cells, 10 μM
Procedure: as §1
as §2, with “(Mitsuya, H. & Broder, S. Proc. Nat. Acad. Sci. USA 1986, 83, 1911) Briefly, 200,000 target CD4^+ ATH8 cells were exposed to cell-free HIV-1/IIIB at a dose of 43 (or 1087 for compound 1g) TCID50 (50% tissue culture infectious dose) for 1 h, resuspended in 2 ml of fresh culture media containing interleukin 2, and cultured at 37° C. with or without test compounds in 5% CO2 -containing humidified air.” left out

[8] = in vivo; cited from earlier work

Nc1ncnc2c1ncn2[C@@H]1O[C@H](CO)C[C@@H]1F [Compound 1a, 2', 3'-dideoxy-2'-fluoroarabinosyladenine, reference compound]
half-life at 50 µM [1]: 1.33 min
half-life at 50 µM ([1]; t1/2 of hydrolysis by adenosine deaminase): 1.33 min
vmax ([1]; pH 7.4 and 37° C.): 2.3 × 10^-1 μmol/min/U
hydrolysis by ADA, times slower than ddA ([1]; vs ddA, 50 μM substrate): 17 times slower
anti-HIV activity with supplementary ADA (in words) ([2]; ATH8 cells, ADA (0.7 U/mL) added): did not change its activity
anti-HIV activity in the presence of dCF (in words) ([2]; ATH8 cells, dCF added): no important changes in the protection
hydrolysis by ADA, times slower than ddA [3]: ca. 10 times slower
toxicity in the presence of dCF (in words) [4]: appeared to be potentiated
% Toxicity ([4]; human, 11520 min): 11%

O=c1[nH]cnc2c1ncn2[C@@H]1O[C@H](CO)C[C@@H]1F [Compound 1b, 2', 3'-dideoxy-2'-fluoroarabinosylhypoxanthine, reference compound]
deamination product / product formation (in words) ([1]; 0.7 U/mL ADA, 37° C.): the rate of formation of 1b corresponded to the rate of disappearance of 1f
logD ([5]; pH 7): -1.21 ± 0.02
in vitro activity against HIV (in words) [6]: known active inosine analogue

Nc1ncnc2c1ncn2[C@H]1CC[C@@H](CO)O1 [ddA, dideoxyadenosine, reference compound]
t1/2 of hydrolysis by adenosine deaminase ([1]; 50 μM, extrapolated from 0.07 units/mL ADA to 0.7 units/mL, 37° C.): 0.083 min
half-life at 50 µM [1]: 0.0833 min
logD ([5]; pH 7, Log P): -0.29 ± 0.01
% Protection ([2]; 10 μM, with dCF (5 μm), 11520 min): 86%
inhibition at 10 µM ([2]; Human immunodeficiency virus 1, IIIB, ATH-8, 192 h, 10 μM, without dCF): 100%
cytotoxicity at 192 h, 10 µM ([7]; with dCF (5 μm)): 22%
cytotoxicity at 192 h, 10 µM ([7]; without dCF): 0%
toxicity in the presence of dCF (in words) ([4]; ATH8 cells, dCF added): appeared to be potentiated

Nc1ccn([C@H]2CC[C@@H](CO)O2)c(=O)n1 [ddC, dideoxycytidine, reference compound]
logD ([5]; pH 7, Log P): -1.33 ± 0.01
CNS entry (in words) [8]: failure of ddC to achieve significant CNS levels

Cc1ccc(C(=O)Nc2ccc(S(=O)(=O)O)c3cc(S(=O)(=O)O)cc(S(=O)(=O)O)c23)cc1NC(=O)c1cccc(NC(=O)Nc2cccc(C(=O)Nc3cc(C(=O)Nc4ccc(S(=O)(=O)O)c5cc(S(=O)(=O)O)cc(S(=O)(=O)O)c45)ccc3C)c2)c1 [suramin]
HIV replication in presence of compound (in words) [6]: HIV replication is considerably slower

antimoniotungstate
HIV replication in presence of compound (in words) [6]: HIV replication is considerably slower
